From patent US12157746B2, “Tetrahydro-1H-pyrazino[2,1-a]isoindolylquinoline compounds for the treatment of autoimmune disease” (F. HOFFMANN-LA ROCHE AG, priority 2018, dated 2024)

Target: T1, human TLR9 (Homo sapiens, UniProt Q9NR96)
T1 sequence (Q9NR96 26-1032): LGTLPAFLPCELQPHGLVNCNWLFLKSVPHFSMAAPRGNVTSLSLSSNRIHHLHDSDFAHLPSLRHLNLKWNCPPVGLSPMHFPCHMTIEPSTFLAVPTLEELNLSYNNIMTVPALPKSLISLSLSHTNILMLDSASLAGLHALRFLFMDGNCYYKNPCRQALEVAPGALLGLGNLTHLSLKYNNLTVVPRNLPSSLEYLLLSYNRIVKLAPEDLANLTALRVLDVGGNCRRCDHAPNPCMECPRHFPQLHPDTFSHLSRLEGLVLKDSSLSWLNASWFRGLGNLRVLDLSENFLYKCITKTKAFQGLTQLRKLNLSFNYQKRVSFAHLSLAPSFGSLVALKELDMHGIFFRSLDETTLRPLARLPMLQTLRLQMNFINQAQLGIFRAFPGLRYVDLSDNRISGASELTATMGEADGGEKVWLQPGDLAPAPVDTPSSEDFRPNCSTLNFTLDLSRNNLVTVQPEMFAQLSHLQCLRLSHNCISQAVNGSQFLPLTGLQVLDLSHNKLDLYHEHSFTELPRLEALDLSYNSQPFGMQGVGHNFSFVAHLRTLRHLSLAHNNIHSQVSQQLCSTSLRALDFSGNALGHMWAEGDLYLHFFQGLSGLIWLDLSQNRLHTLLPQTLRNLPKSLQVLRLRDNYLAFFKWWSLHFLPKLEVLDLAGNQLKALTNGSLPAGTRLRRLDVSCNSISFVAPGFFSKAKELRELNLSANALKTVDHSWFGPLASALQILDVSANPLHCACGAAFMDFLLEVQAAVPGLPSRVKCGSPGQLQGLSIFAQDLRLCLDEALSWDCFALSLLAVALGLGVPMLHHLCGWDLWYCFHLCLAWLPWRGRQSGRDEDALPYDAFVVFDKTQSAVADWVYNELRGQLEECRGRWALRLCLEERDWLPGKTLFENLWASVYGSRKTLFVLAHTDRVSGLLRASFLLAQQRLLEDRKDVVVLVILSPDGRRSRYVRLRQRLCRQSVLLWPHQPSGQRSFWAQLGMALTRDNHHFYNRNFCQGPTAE
Test: HEK293-Blue-hTLR-9 cells assay
Assay type: cell-based
Conditions: HEK293-Blue-hTLR9 cells, ODN2006 stimulation, 20 hrs, SEAP reporter; read-out: HEK/hTLR9 IC50
From the text: HEK293-Blue-hTLR-9 Cells Assay:
A stable HEK293-Blue-hTLR-9 cell line was purchased from InvivoGen (Cat. #: hkb-htlr9, San Diego. California USA). These cells were originally designed for studying the stimulation of human TLR9 by monitoring the activation of NF-κB. A SEAP (secreted embryonic alkaline phosphatase) reporter gene was placed under the control of the IFN-β minimal promoter fused to five NF-κB and AP-1-binding sites. The SEAP was induced by activating NF-κB and AP-1 via stimulating HEK-Blue hTLR9 cells with TLR9 ligands. Therefore the reporter expression was declined by TLR9 antagonist under the stimulation of a ligand, such as ODN2006 (Cat. #: tlrl-2006-1, Invivogen, San Diego, California USA), for incubation of 20 hrs. The cell culture supernatant SEAP reporter activity was determined using QUANTI-Blue™ kit (Cat. #: rep-qb1, Invivogen, San Diego, California, USA) at a wavelength of 640 nm, a detection medium that turns purple or blue in the presence of alkaline phosphatase.
HEK293-Blue-hTLR9 cells were incubated at a density of 250.000-450,000 cells/mL in a volume of 170 μL in a 96-well plate in Dulbecco's Modified Eagle's medium (DMEM) containing 4.5 g/L glucose, 50 U/mL penicillin, […], […], 2 mM L-glutamine, 10% (v/v) heat-inactivated fetal bovine serum with addition of 20 μL test compound 1n a serial dilution in the presence of final DMSO at 1% and 10 μL of 20 uM ODN2006 in above DMEM, perform incubation under 37° C. in a CO2 incubator for 20 hrs. Then 20 μL of the supernatant from each well was incubated with 180 μL Quanti-blue substrate solution at 37° C. for 2 h and the absorbance was read at 620˜655 nm using a spectrophotometer. The signaling pathway that TLR9 activation leads to downstream NF-κB activation has been widely accepted, and therefore similar reporter assay was modified for evaluating TLR9 antagonist.

Structure (SMILES)	IC50 [nM]
[2H]c1ccc2c(N3C[C@@H](C)N4Cc5cc(N6CC(C)(N)C6)ccc5[C@H]4C3)ccc(C#N)c2n1 [Example 92, 5-[(4R,10bS)-8-(3-amino-3-methyl-azetidin-1-yl)-4-methyl-3,4,6,10b-tetrahydro-1H-pyrazino[2,1-a]isoindol-2-yl]-2-deuterio-quinoline-8-carbonitrile]	148
COC12CNCC1CN(c1ccc3c(c1)CN1[C@H](C)CN(c4ccc(C#N)c5ncccc45)C[C@H]31)C2 (stereo partly drawn) [Example 41, 5-[(4R,10bS)-8-(3a-methoxy-1,2,3,4,6,6a-hexahydropyrrolo[3,4-c]pyrrol-5-yl)-4-methyl-3,4,6,10b-tetrahydro-1H-pyrazino[2,1-a]isoindol-2-yl]quinoline-8-carbonitrile]	< 31.8
C[C@@H]1CN(c2ccc(C#N)c3ncccc23)C[C@@H]2c3ccc(C4CCNCC4)cc3CN12 [Example 9, 5-[(4R,10bS)-4-methyl-8-(4-piperidyl)-3,4,6,10b-tetrahydro-1H-pyrazino[2,1-a]isoindol-2-yl]quinoline-8-carbonitrile]	130
CO[C@@H]1CN(c2ccc3c(c2)CN2[C@H](C)CN(c4ccc(C#N)n5nccc45)C[C@H]32)C[C@H]1N [Example 94, 4-[(4R,10bS)-8-[(3R,4R)-3-amino-4-methoxy-pyrrolidin-1-yl]-4-methyl-3,4,6,10b-tetrahydro-1H-pyrazino[2,1-a]isoindol-2-yl]pyrazolo[1,5-a]pyridine-7-carbonitrile]	149
CO[C@H]1CN(c2ccc3c(c2)CN2C3CN(c3ccc(C#N)c4ncccc34)C[C@H]2C)C[C@@H]1N (single isomer, unassigned) [Example 16A]	113
C[C@@H]1CN(c2ccc(C#N)c3ncccc23)C[C@@H]2c3ccc(N4CCOC5CNCC54)cc3CN12 (stereo partly drawn) [Example 52, 5-[(4R,10bS)-8-(3,4a,5,6,7,7a-hexahydro-2H-pyrrolo[3,4-b][1,4]oxazin-4-yl)-4-methyl-3,4,6,10b-tetrahydro-1H-pyrazino[2,1-a]isoindol-2-yl]quinoline-8-carbonitrile]	195
C[C@@H]1CN(c2ccc(C#N)n3nccc23)C[C@@H]2c3ccc(N4C[C@@H](N)[C@](C)(O)C4)cc3CN12 [Example 108, 4-[(4R,10bS)-8-[(3R,4R)-4-amino-3-hydroxy-3-methyl-pyrrolidin-1-yl]-4-methyl-3,4,6,10b-tetrahydro-1H-pyrazino[2,1-a]isoindol-2-yl]pyrazolo[1,5-a]pyridine-7-carbonitrile]	126
C[C@@H]1CN(c2ccc(C#N)n3nccc23)C[C@@H]2c3ccc(N4CC5CNCC(C4)O5)cc3CN12 [Example 107, 4-[(4R,10bS)-4-methyl-8-(9-oxa-3,7-diazabicyclo[3.3.1]nonan-3-yl)-3,4,6,10b-tetrahydro-1H-pyrazino[2,1-a]isoindol-2-yl]pyrazolo[1,5-a]pyridine-7-carbonitrile]	67.9
C[C@@H]1CN(c2ccc(C#N)c3ncccc23)C[C@@H]2c3ccc(N4C[C@H](N)[C@@](C)(O)C4)cc3CN12 [Example 45B, 5-[(4R,10bS)-8-[(3S,4S)-4-amino-3-hydroxy-3-methyl-pyrrolidin-1-yl]-4-methyl-3,4,6,10b-tetrahydro-1H-pyrazino[2,1-a]isoindol-2-yl]quinoline-8-carbonitrile]	74.1
C[C@@H]1CN(c2ccc(C#N)n3nccc23)C[C@@H]2c3ccc(N4CC[C@@](C)(N)C4)cc3CN12 [Example 103, 4-[(4R,10bS)-8-[(3R)-3-amino-3-methyl-pyrrolidin-1-yl]-4-methyl-3,4,6,10b-tetrahydro-1H-pyrazino[2,1-a]isoindol-2-yl]pyrazolo[1,5-a]pyridine-7-carbonitrile]	142
C[C@@H]1CN(c2ccc(C#N)c3ncccc23)C[C@@H]2c3ccc(N4C[C@@H](F)[C@@H](N)C4)cc3CN12 [Example 46, 5-[(4R,10bS)-8-[(3S,4R)-3-amino-4-fluoro-pyrrolidin-1-yl]-4-methyl-3,4,6,10b-tetrahydro-1H-pyrazino[2,1-a]isoindol-2-yl]quinoline-8-carbonitrile]	144
C[C@@H]1CN(c2ccc(C#N)c3ncccc23)C[C@@H]2c3ccc(N4CCNC[C@@H](O)C4)cc3CN12 [Example 53B, 5-[(4R,10bS)-8-[(6R)-6-hydroxy-1,4-diazepan-1-yl]-4-methyl-3,4,6,10b-tetrahydro-1H-pyrazino[2,1-a]isoindol-2-yl]quinoline-8-carbonitrile]	68
C[C@@H]1CN(c2ccc(C#N)c3ncccc23)C[C@@H]2c3ccc(N[C@@H]4CNC[C@H]4F)cc3CN12 [Example 33, 5-[(4R,10bS)-8-[[(3R,4R)-4-fluoropyrrolidin-3-yl]amino]-4-methyl-3,4,6,10b-tetrahydro-1H-pyrazino[2,1-a]isoindol-2-yl]quinoline-8-carbonitrile]	100
CO[C@H]1CN(c2ccc3c(c2)CN2[C@H](C)CN(c4ccc(C#N)c5ncccc45)C[C@H]32)C[C@@H]1N (relative stereo) [Example 16, 5-[(4R,10bS)-8-[trans-3-amino-4-methoxy-pyrrolidin-1-yl]-4-methyl-3,4,6,10b-tetrahydro-1H-pyrazino[2,1-a]isoindol-2-yl]quinoline-8-carbonitrile]	95.2
C[C@@H]1CN(c2ccc(C#N)c3ncccc23)C[C@@H]2c3ccc(N4C[C@@H](N)[C@H](F)C4)cc3CN12 [Example 48, 5-[(4R,10bS)-8-[(3R,4R)-3-amino-4-fluoro-pyrrolidin-1-yl]-4-methyl-3,4,6,10b-tetrahydro-1H-pyrazino[2,1-a]isoindol-2-yl]quinoline-8-carbonitrile]	193
CO[C@@H]1CN(c2ccc3c(c2)CN2C3CN(c3ccc(C#N)c4ncccc34)C[C@H]2C)C[C@@H]1N (relative stereo) [Example 17, 5-[(4R,10bS)-8-[cis-3-amino-4-methoxy-pyrrolidin-1-yl]-4-methyl-3,4,6,10b-tetrahydro-1H-pyrazino[2,1-a]isoindol-2-yl]quinoline-8-carbonitrile]	81
C[C@@H]1CN(c2ccc(C#N)c3ncccc23)C[C@@H]2c3ccc(N4CC5CNCC(C4)O5)cc3CN12 [Example 14, 5-[(4R,10bS)-4-methyl-8-(9-oxa-3,7-diazabicyclo[3.3.1]nonan-3-yl)-3,4,6,10b-tetrahydro-1H-pyrazino[2,1-a]isoindol-2-yl]quinoline-8-carbonitrile]	81.1
C[C@@H]1CN(c2ccc(C#N)c3ncccc23)C[C@@H]2c3cccc(N4CCNCC4)c3CN12 [Example 8, 5-[(4R,10bS)-4-methyl-7-piperazin-1-yl-3,4,6,10b-tetrahydro-1H-pyrazino[2,1-a]isoindol-2-yl]quinoline-8-carbonitrile]	150
C[C@@H]1CN(c2ccc(C#N)c3ncccc23)C[C@@H]2c3ccc(N4C[C@H](N)[C@@H](F)C4)cc3CN12 [Example 49, 5-[(4R,10bS)-8-[(3S,4S)-3-amino-4-fluoro-pyrrolidin-1-yl]-4-methyl-3,4,6,10b-tetrahydro-1H-pyrazino[2,1-a]isoindol-2-yl]quinoline-8-carbonitrile]	186
